Legend:
femoral blood flow = assay: Effects on Femoral Blood Flow in the Dog (Test C); type: in vivo, dog (mongrel); conditions: anesthetized dog, intraarterial 0.001 to 10 mcg
Procedure: C. Evaluation of the Effects of Prostaglandin Analogs III on the Femoral Blood Flow in the Dog
The peripheral vasodilator or constrictor effects of test compounds were determined in mongrel dogs of either sex, weighing between 10 and 20 kg anesthestized intravenously with 35 mg/kg of sodium pentobarbital. An external iliac artery was dissected immediately above the femoral arch for a length of approximately 5 cm and a previously calibrated, non-connulating electromagnetic flowmeter sensor with a lumen between 2.5 and 3.5 mm was placed snugly around the vessel. Cannulas were placed in a branch of the artery arising distally to the location of the flowmeter sensor for intraarterial drug administrations, in the contralateral femoral artery for systemic blood pressure recordings and in the trachea for artificial respiration with room air. Femoral blood flow and systemic blood pressure were continuously recorded with an electromagnetic flowmeter and pressure transducer, respectively.
After an adequate control period, test compounds were injected intraarterially at one log-spaced doses ranging from 0.001 to 10 mcg., in a volume of 0.5 ml and at 5 to 10 min intervals. Maximum changes in bloodflow, as well as any variations in blood pressure, were tabulated for each dose in absolute values (ml/min and mmHg). The calculations were made taking as control values those existing immediately before administration of each dose. The direction of the observed change (+ for increase and - for decrease) was also noted. The dose changing bloodflow by 100 ml/min (ED100 ml/min) was calculated graphically and was used for scoring activity as follows: […]

blood pressure = assay: Effects on Blood Pressure and Heart Rate in the Anesthetized Cat (Test D); type: in vivo; conditions: Felis catus, iv, i.v. 0.01 to 10.0 mcg/kg, scored on hypotension, read-out: Activity value, Test D: Normal Feline Blood Pressure and Heart Rate (ED50 mmHg)
Procedure: D. Evaluation of the Effects of Prostaglandin Analogs III on Blood Pressure and Heart Rate in the Anesthetized Cat
The acute effects of test compounds on blood pressure and heart rate were determined in cats of either sex anesthetized with a mixture of pentobarbital sodium (35 mg/kg, i.v.) and barbital sodium (100 mg/kg, i.v.). Cannulas were placed in the trachea to allow adequate spontaneous ventilation, in a femoral artery for blood pressure recording with a strain gage transducer, and in a saphenous vein for drug administration. Heart rate was recorded by means of a cardiotachometer driven by the R wave of the electrocardiogram. After a period of 10 min of stable recordings of blood pressure and heart rate, the test compound was administered intravenously at doses increasing from 0.01 to 10.0 mcg/kg, spaced one log and injected at 10 min intervals. All doses were injected in a volume of 0.1 ml/kg. Modifications of blood pressure and heart rate induced by the test compound were expressed both in absolute units (mmHg and beats/min) and as percent of values recorded immediately before administration of each dose. Biphasic responses were tabulated in the order in which they occur. The direction of the observed changes was also noted (+ for increase and - for decrease).
Activity of compounds in this test was judged only on the basis of the degree of hypotension observed. Thus, the ED50 mmHg (dose decreasing blood pressure by 50 mmHg) was calculated graphically and the compound scored according to the following scale: […]

rat uterus = assay: Effects on the Rat Uterus (Test F); conditions: for EC50: read-out: Activity value, Test F: Effects on Rat Uterus (ED50, response of 50% that of carbachol)
Procedure: F. Evaluation of the Effects of Prostaglandin Analogs III on the Rat Uterus
The uterine stimulant effect of test compounds is determined in segments of uterus obtained from rats (140-160 g) pretreated subcutaneously with 1 mg/kg of diethylstibesterol 18 hr before the experiment. The tissues are placed in 10 ml chambers filled with de-Jalon solution at 29° C. and bubbled with 95% O2 and 5% CO2, and prepared for isometric recording with force displacement transducers. Preparations are stretched to an initial tension of 1 g and are left undisturbed for 30 min, after which two responses to 1 mcg/ml of carbachol added to the bath at a 10 min interval, are obtained (the value of the second response is recorded). Responses to increasing concentrations of the test compound (0.001 to 10.0 mcg/ml with one log intervals) are then recorded every 10 min. Preparations are washed four times after each response. All doses of drugs are administered in a 0.1 ml volume. Since it has been observed that the magnitude of the second response to carbachol, which is approximately 10% greater than the first, is close to the maximal response of the tissue, such value is taken as a measure of the sensititity of the particular segment. Responses to each concentration of the test compound are expressed in terms of percentage of the second response to carbachol and the ED50 (dose producing a response of 50% that of carbachol) is calculated graphically. Activity is scored according to the following scale: […]

[1] = test system: blood pressure (hypertensive rat); assay: Effects on Blood Pressure in the Hypertensive Rat (Test E); type: in vivo; set-up: key: 0: Not significant at any time interval; 1: Significant at one time interval; 2: Significant at two time intervals; 3: Significant at three time intervals; 4: Significant at all four intervals; conditions: 1 mg/kg intraperitoneal, 2, 4, 6 and 8 hr
Procedure: E. Evaluation of the Effects of Prostaglandin Analogs III on Blood Pressure in the Hypertensive Rat
The acute antihypertensive activity of test compounds is determined in rats made hypertensive by the procedure of Grollman (A. Proc. Soc. Exper. Biol. Med., 57:102, [1944]). Female rats weighing between 60 and 100 g are anesthetized with ether, the right kidney approached through a flank retroperitoneal incision, decapsulated and tied with a figure-of-eight ligature. The animals are left to recover and two weeks later are again anesthetized and the contralateral kidney removed. Four weeks after the second operation the rats are subjected to indirect blood pressure measurements and those showing systolic pressure values greater than 160 mmHg are selected for drug testing.
Blood pressure is measured in the tail with an inflatable occluding cuff placed at the base of the extremity and a pulse detector located distally. The cuff is inflated to approximately 300 mmHg and is slowly deflated until pulsations appear, indicating the level of systolic pressure; diastolic pressure is not recorded by this procedure. All measurements are carried out in unanesthetized, unsedated animals maintained in a warm environment during the recording procedure and for at least 6 hr before. In all cases, three pressure readings are obtained in succession and mean values are calculated thereof.
Experiments are carried out in groups of five hypertensive rats in which systolic pressure is determined immediately before and 2, 4, 6 and 8 hr after the intraperitoneal administration of the test compound at a dose of 1 mg/kg. Drugs are diluted from stock solutions with phosphate buffer (Lee et al., Prostaglandins 3:29 [1973]), so as to inject this quantity in a volume of 1 ml/kg. Changes from control blood pressure values are calculated for each interval both in mmHg and in per-cent, and evaluated for significance by means of Wilcoxon's signed rank test (Wilcoxon and Wilcox, Some rapid approximate statistical procedures, Lederle Laboratories, Pearl River [1964]).

[2] = rat uterus segments, 0.001 to 10.0 mcg/ml, 29° C.

CCC1CC([C@@H](O)/C=C/[C@H]2[C@H](O)CC(=O)[C@@H]2CCCCCCO)C1 (relative stereo) [TR-4675, (±)16,18-Methano-1-nor-2,11α,15R-trihydroxyprost-13E-en-9-one]
Activity value, Test C: Increase in Canidae Femoral Blood Flow (ED100 ml/min) (femoral blood flow): 0 (>10.0)
ED (50 mmHg) (blood pressure): > 0.0101 mg/kg
EC50 (rat uterus; [2]): > 10 µg/mL

CCC1CC([C@H](O)/C=C/[C@H]2[C@H](O)CC(=O)[C@@H]2CCCCCCO)C1 (relative stereo) [TR-4676, (±)16,18-Methano-1-nor-2,11α,15S-trihydroxyprost-13E-en-9-one]
Activity value, Test C: Increase in Canidae Femoral Blood Flow (ED100 ml/min) (femoral blood flow): 0 (>10.0)
ED (50 mmHg) (blood pressure): > 0.0101 mg/kg
Activity value, Test E: Effects on Blood Pressure in Hypertensive Rat (blood pressure decrease) [1]: 0
EC50 (rat uterus; [2]): > 10 µg/mL

CCC1CC(C(O)/C=C/[C@H]2C=CC(=O)[C@@H]2CCCCCCC(=O)OC)C1 (some centres unmarked) [TR-4280, Methyl 15RS-hydroxy-16,18-methano-9-oxoprosta-10,13E-dien-1-oate]
EC50 (rat uterus; [2]): > 10 µg/mL

CCC1CC([C@H](O)/C=C/[C@H]2C=CC(=O)[C@@H]2CCCCCCCOC(C)=O)C1 (stereo partly drawn) [TR-4565, 1-Acetoxy-15S-hydroxy-16,18-methanoprosta-10,13E-dien-9-one]
Activity value, Test C: Increase in Canidae Femoral Blood Flow (ED100 ml/min) (femoral blood flow): 1 (1.0.-10.0)
ED (50 mmHg) (blood pressure): > 0.0101 mg/kg
EC50 (rat uterus; [2]): > 10 µg/mL

CCC1CC([C@H](O)/C=C/C2C(O)CC(O)C2CCCCCCCO)C1 (stereo partly drawn) [TR-4626, 16,18-Methanoprost-13E-en-1,9α,11α,15S-tetraol]
Activity value, Test F: Effects on Rat Uterus (ED50, response of 50% that of carbachol) (rat uterus; [2]): 0 (>10)

CC1([C@@H](O)/C=C/[C@H]2[C@H](O)CC(=O)[C@@H]2CCCCCCCO)CCC1 [TR-4674, 16,19-Cyclo-16-methyl-20-nor-1,11α,15S-trihydroxyprost-13E-en-9-one]
ED (50 mmHg) (blood pressure): > 0.0101 mg/kg
Activity value, Test E: Effects on Blood Pressure in Hypertensive Rat (blood pressure decrease) [1]: 0
EC50 (rat uterus; [2]): > 10 µg/mL

CCC1CC(C)([C@H](O)/C=C/[C@H]2[C@H](O)CC(=O)[C@@H]2CCCCCCC(=O)OC)C1 (stereo partly drawn) [TR-4681, Methyl 11α,15R-dihydroxy-16,18-methano-16-methyl-9-oxoprost-13E-en-1-oate]
Activity value, Test C: Increase in Canidae Femoral Blood Flow (ED100 ml/min) (femoral blood flow): 2 (0.11-1.0)
ED (50 mmHg) (blood pressure): 0.00101 to 0.01 mg/kg
EC50 (rat uterus; [2]): > 10 µg/mL

COC(=O)CCCCCC[C@H]1C(=O)C=C[C@@H]1/C=C/[C@@H](O)C1(C)CCC1 [TR-4683, Methyl 16,19-cyclo-15R-hydroxy-16-methyl-20-nor-9-oxoprosta-10,13E-dien-1-oate]
EC50 (rat uterus; [2]): > 10 µg/mL

CCC1CC(C)([C@@H](O)/C=C/[C@H]2[C@H](O)CC(=O)[C@@H]2CCCCCCCO)C1 (stereo partly drawn) [TR-4689, 16,18-Methano-16-methyl-1,11α,15S-trihydroxyprost-13E-en-9-one]
Activity value, Test C: Increase in Canidae Femoral Blood Flow (ED100 ml/min) (femoral blood flow): 0 (>10.0)
ED (50 mmHg) (blood pressure): > 0.0101 mg/kg
EC50 (rat uterus; [2]): > 10 µg/mL

CCCCC1([C@H](O)/C=C/[C@H]2[C@H](O)CC(=O)[C@@H]2CCCCCCC(=O)OC)CCC1 [TR-4692, Methyl 11α,15R-dihydroxy-9-oxo-16,16-propanoprost-13E-en-1-oate]
ED (50 mmHg) (blood pressure): 0.00101 to 0.01 mg/kg
Activity value, Test E: Effects on Blood Pressure in Hypertensive Rat (blood pressure decrease) [1]: 0
EC50 (rat uterus; [2]): > 10 µg/mL

CCC1CC(C)(C(O)/C=C/[C@H]2C=CC(=O)[C@@H]2CCCCCCC(=O)OC)C1 (stereo partly drawn) [TR-4694, Methyl 15R-hydroxy-16,18-methano-16-methyl-9-oxoprosta-10,13E-dien-1-oate]
EC50 (rat uterus; [2]): > 10 µg/mL

COC(=O)CCCCCC[C@H]1C(=O)C[C@@H](O)[C@@H]1/C=C/[C@H](O)C1CC(CC2CCC2)C1 (stereo partly drawn) [TR-4796, Methyl 11α,15R-dihydroxy-16,18-methano-20,20-propano-9-oxoprost-13E-en-1-oate]
EC50 (rat uterus; [2]): > 10 µg/mL

COC(=O)CCCCCC[C@H]1C(=O)C[C@@H](O)[C@@H]1/C=C/[C@@H](O)C1CC(CC2CCC2)C1 (stereo partly drawn) [TR-4797, Methyl 11α,15S-dihydroxy-16,19-methano-20,20-propano-9-oxoprost-13E-en-1-oate]
EC50 (rat uterus; [2]): > 10 µg/mL

O=C1C[C@@H](O)[C@H](/C=C/[C@H](O)C2CC(CC3CCC3)C2)[C@H]1CCCCCCCO (stereo partly drawn) [TR-4832, 1,11α,15R-Trihydroxy-16,18-methano-20,20-propanoprost-13E-en-9-one]
EC50 (rat uterus; [2]): > 10 µg/mL

O=C1C[C@@H](O)[C@H](/C=C/[C@@H](O)C2CC(CC3CCC3)C2)[C@H]1CCCCCCCO (stereo partly drawn) [TR-4833, 1,11α,15S-Trihydroxy-16,18-methano-20,20-propanoprost-13E-en-9-one]
EC50 (rat uterus; [2]): > 10 µg/mL

O=C1C[C@@H](O)[C@H](/C=C/[C@@H](O)C2CC(C3CCC3)C2)[C@H]1CCCCCCCO (stereo partly drawn) [TR-4880, 1,11α,15S-Trihydroxy-16,18-methano-19,20-ethanoprost-13E-en-9-one]
EC50 (rat uterus; [2]): > 10 µg/mL

O=C1C[C@@H](O)[C@H](/C=C/[C@H](O)C2CC(C3CCC3)C2)[C@H]1CCCCCCCO (stereo partly drawn) [TR-4881, 1,11α,15R-Trihydroxy-16,18-methano-19,20-ethanoprost-13E-en-9-one]
EC50 (rat uterus; [2]): > 10 µg/mL

COC(=O)CCCCCC[C@H]1C(=O)C[C@@H](O)[C@@H]1/C=C/[C@H](O)C1CC(C2CCC2)C1 (stereo partly drawn) [TR-4882, Methyl 11α,15R-dihydroxy-16,18-methano-19,20-ethano-9-oxoprost-13E-en-1-oate]
EC50 (rat uterus; [2]): > 10 µg/mL

COC(=O)CCCCCC[C@H]1C(=O)C[C@@H](O)[C@@H]1/C=C/[C@@H](O)C1CC(C2CCC2)C1 (stereo partly drawn) [TR-4887, Methyl 11α,15S-dihydroxy-16,18-methano-19,20-ethano-9-oxoprost-13E-en-1-oate]
EC50 (rat uterus; [2]): > 10 µg/mL

C[N+](C)(C)CCOC(N)=O [carbachol, reference compound]
magnitude of the second response greater than the first (rat uterus; carbachol 1 mcg/ml, rat uterus, 10 min interval): approximately 10%
